Test results: patent publication US7973078B2, “Sulfonamide compound or salt thereof” (Astellas Pharma Inc., priority 2006, dated 2011)

Experiments:
rat EP1 receptor [1] = biological target: T1, rat EP1 receptor (Rattus norvegicus, UniProt P70597); assay: Receptor antagonistic activity using cells expressing an EP1 receptor (PGE2-induced intracellular Ca change, FLIPR); format: cell-based; conditions: HEK293 cells stably expressing rat EP1 receptors; 100 nM PGE2; Ca concentration in cells
T1 sequence (P70597 1-405): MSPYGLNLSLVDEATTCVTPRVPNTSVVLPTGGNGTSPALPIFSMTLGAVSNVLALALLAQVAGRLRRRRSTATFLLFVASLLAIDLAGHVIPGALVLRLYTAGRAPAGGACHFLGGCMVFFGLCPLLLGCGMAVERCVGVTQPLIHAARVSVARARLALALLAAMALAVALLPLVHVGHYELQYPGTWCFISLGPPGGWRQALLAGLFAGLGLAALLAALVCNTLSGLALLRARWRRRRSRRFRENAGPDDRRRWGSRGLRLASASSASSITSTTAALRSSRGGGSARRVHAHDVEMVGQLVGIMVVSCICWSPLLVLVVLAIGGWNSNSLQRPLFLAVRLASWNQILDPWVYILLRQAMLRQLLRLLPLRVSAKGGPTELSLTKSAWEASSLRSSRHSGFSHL
Protocol: 1. Experiment to Measure a Receptor Antagonistic Activity Using Cells Expressing an EP1 Receptor
HEK293 cells (American Type Culture Collection) that stably expressed rat EP1 receptors were dispensed onto a 96-well poly-D-lysine-coated plate (Product Name: Biocoat, PDL96W black/clear, Nippon Becton Dickinson) to a 2×10^4 cells/well at the day before the experiment, and incubated overnight at 37° C. under 5% carbon dioxide (CO2) in a culture medium containing 10% fetal bovine serum (FBS) (Product Name: DMEM, Invitrogen Corporation). The culture medium was replaced by a loading buffer (a washing solution containing a 4 μM fluorescent indicator (Product Name: Fluo3-AM, Tong Ren Tang Technologies Co. Ltd.):a Hank's balanced salt solution)(HBSS), 20 mM 2-[4-(2-hydroxyethyl)-1-piperazinyl]ethanesulfonic acid (HEPES)-sodium hydroxide (NaOH), 2.5 mM Probenecid, 0.1% bovine serum albumin (BSA)), and left to stand at room temperature for 3 hours, and the cells were washed using a plate washer in which a washing solution had been set up (Product Name: ELx405, BIO-TEK instrument Corporation). The compound that had been preliminarily dissolved and diluted in a washing solution was added thereto, and set up in a system for measuring a calcium (Ca) concentration in a cell (Product Name: FLIPR, Molecular Devices Corporation). After 5 minutes, PGE2 was added to a final concentration of 100 nM, and the change in Ca concentrations in cells was measured. A difference between a maximum value and a minimum value in Ca concentrations in cells was determined, and kept as measurement data. With a response upon addition of 100 nM PGE2 being set at […], and a response upon addition of a buffer being set at 100%, the concentration causing 50% inhibition was determined as an IC50 value.
In the table, Pre represents Preparative Example No. as described later, and Ex represent Example No. as described later.

rat EP1 receptor [2] = biological target: T1, rat EP1 receptor; assay: Receptor binding test using EP1 receptor-expressing cells (3H-PGE2 binding to membrane sample); set-up: expressed in transfected cells; host or cells: HEK293EBNA cells, pCEP4 vector, transient (2 days); crude membrane sample; conditions: membrane of HEK293EBNA cells expressing rat EP1; 2.5 nM 3H-PGE2; Ki=IC50/(1+([C]/Kd))
Source text: (2) Receptor Binding Test Using EP1 Receptor-Expressing Cells
A signal peptide (MKTIIALSYIFCLVFA: SEQ ID NO: 1) and a FLAG sequence (DYKDDDDK: SEQ ID NO: 2) were introduced at the N-terminus of a rat EP1 receptor, followed by subcloning into an expression vector (Product Name: pCEP4, Invitrogen Corporation). An HEK293EBNA cell (American Type Culture Collection) was transfected with the rat EP1 expression vector using a transfection regent (Product Name: Fugene-6, Roche-Diagnostics, K.K), and then cultured for 2 days in a medium containing 10% FBS (Product Name: DMEM, Invitrogen Corporation) at 37° C. under 5% CO2. After culturing, the cells were recovered, treated with a cell lysate (20 mM Tris(hydroxymethyl)aminomethane (Tris)buffer pH7.5, 5 mM ethylene diaminetetraacetic acid(EDTA)), and ultracentrifuged (23,000 revolution, 25 minutes×2) for a rough preparation of a membrane sample.
A reaction solution containing the prepared membrane sample (15 μg) and ^3H-PGE2 (150 μl, composition: 10 mM 2-(N-morpholino)ethanesulfonic acid (MES)/potassium hydroxide(KOH) pH6.0, 1 mM EDTA, 10 mM magnesium chloride (MgCl2), 0.02% 3-[(3-Cholamidopropyl)dimethylammonio] propanesulfonate (CHAPS)) was incubated at room temperature for 1 hour. The reaction was terminated with an ice-cooled buffer, and suction-filtered under reduced pressure to trap the bound ^3H-PGE2 to a glass fiber filter (Product Name: UNIFILTER-96, GF/B, PerkinElmer Japan Co., Ltd.), so as to measure the radioactivity of the binding with a microplate scintillation counter (Product Name: TopCount, Packard) using Microscinti (Product Name: Microscinti 20, PerkElmer Japan Co., Ltd.).
The dissociation constant (Kd) and the maximum binding (Bmax) were determined using Scatchard plot (Annals of the New York Academy of Science, US, volume 51, page 660, 1949). Nonspecific bindings were determined as bindings in the presence of an excessive amount (2.5 μM) of label-free PGE2. The assessment of inhibitory effect on ^3H-PGE2 binding by the compound was carried out by adding 2.5 nM ^3H-PGE2 and the compound.
The inhibition constant Ki(nM) for each compound was obtained using the following formula: Ki=IC50/(1+([C]/Kd))
wherein [C] represents the concentration of ^3H-PGE2 employed in a reaction system.

SMILES | IC50 (rat EP1 receptor [1]) [nM] | Ki (rat EP1 receptor [2]) [nM]
Cc1ccc(S(=O)(=O)N(CC(=O)NCc2ccc(-n3cccn3)cc2)c2cccc(Cl)c2C)cc1 [Ex26] | 2.5 | –
COc1ccc(CNC(=O)CN(c2cccc(Cl)c2C)S(=O)(=O)c2ccc(C)cc2)cc1 [Pre1, N^2-(3-chloro-2-methylphenyl)-N-(4-methoxybenzyl)-N^2-[(4-methylphenyl)sulfonyl] glycinamide] | 16 | 0.68
Cc1ccc(S(=O)(=O)N(CC(=O)NCc2cccc(C(=O)O)c2)c2cccc(Cl)c2C)cc1 [Ex7] | 1.6 | 0.57
COc1c(Cl)cccc1N(CC(=O)NCc1cccc(C(=O)O)c1)S(=O)(=O)c1ccc(C)cc1 [Ex38] | 1.5 | 0.48
CCc1c(Cl)cccc1N(CC(=O)NCc1cccc(C(=O)O)c1)S(=O)(=O)c1ccc(C)cc1 [Ex40] | 0.72 | 0.33
Cc1ccc(S(=O)(=O)N(CC(=O)NCc2ccc(C(=O)NS(C)(=O)=O)cc2)c2cccc(Cl)c2C)cc1 [Ex20] | 1.4 | 0.74
Cc1ccc(S(=O)(=O)N(CC(=O)NCc2cccc(OCC(=O)O)c2)c2cccc(Cl)c2C)cc1 [Ex16] | 2.4 | 1
CCc1c(Cl)cccc1N(CC(=O)NCc1cccc(/C=C/C(=O)O)c1)S(=O)(=O)c1ccc(C)cc1 [Ex74] | 1 | 0.35
Cc1ccc(S(=O)(=O)N(CC(=O)NCc2ccncn2)c2cccc(Cl)c2C)cc1 [Pre15] | 12 | –
COC(=O)c1ccc(CNC(=O)CN(c2cccc(Cl)c2C)S(=O)(=O)c2ccc(C)cc2)cc1 [Ex24] | 1 | –
